{"source": "ChEMBL document CHEMBL1150258", "about": "“Predicting binding modes from free energy calculations” (J Med Chem, 2008)", "note": "pIC50: −log10 of the molar value.", "data": [{"target": "Human immunodeficiency virus type 1 reverse transcriptase (Human immunodeficiency virus 1, UniProt Q72547)", "experiment": "Inhibition of HIV1 reverse transcriptase in […]", "type": "cell-based", "values": [{"compound": "CCC(=O)Nc1c(Cc2cc(C)cc(C)c2)c(CC)c(C)[nH]c1=O", "pIC50": 5.40}, {"compound": "CCc1c(C)[nH]c(=O)c(NC(C)=O)c1Cc1cc(C)cc(C)c1", "pIC50": 6.40}, {"compound": "CCNc1c(Cc2cc(C)cc(C)c2)c(CC)c(C)[nH]c1=O", "pIC50": 7.80}, {"compound": "CCCN(C)c1c(Cc2cc(C)cc(C)c2)c(CC)c(C)[nH]c1=O", "pIC50": 7.80}, {"compound": "CCOCCN(C)c1c(Cc2cccc(C)c2)c(CC)c(C)[nH]c1=O", "pIC50": 7.89}, {"compound": "CCc1c(C)[nH]c(=O)c(N(CC)CC)c1Cc1cc(C)cc(C)c1", "pIC50": 7.80}, {"compound": "CCc1c(C)[nH]c(=O)c(N2CCCCC2)c1Cc1cc(C)cc(C)c1", "pIC50": 6.20}, {"compound": "CCc1c(C)[nH]c(=O)c(N(C)CCCO)c1Cc1cccc(C)c1", "pIC50": 8.52}, {"compound": "CCc1c(C)[nH]c(=O)c(N(C)CCO)c1Cc1cccc(C)c1", "pIC50": 8.30}, {"compound": "CCCCNc1c(Cc2cc(C)cc(C)c2)c(CC)c(C)[nH]c1=O", "pIC50": 6.90}, {"compound": "CCc1c(C)[nH]c(=O)c(N(C)CCCCCO)c1Cc1cc(C)cc(C)c1", "pIC50": 8.40}, {"compound": "CCc1c(C)[nH]c(=O)c(NC(=S)Nc2ccccc2)c1Cc1cccc(C)c1", "pIC50": 5.50}, {"compound": "CCc1c(C)[nH]c(=O)c(N(C)CCOC)c1Cc1cccc(C)c1", "pIC50": 9.00}, {"compound": "CCc1c(C)[nH]c(=O)c(NCc2ccccc2)c1Cc1cc(C)cc(C)c1", "pIC50": 6.60}, {"compound": "CCc1c(C)[nH]c(=O)c(N(C)CC)c1Cc1cc(C)cc(C)c1", "pIC50": 8.10}, {"compound": "CCc1c(C)[nH]c(=O)c(N(C)CC)c1Cc1cccc(/C=C/C#N)c1", "pIC50": 9.00}, {"compound": "CCc1c(C)[nH]c(=O)c(N(C)C(C)COC)c1Cc1cc(C)cc(C)c1", "note": "(centres undefined)", "pIC50": 8.22}, {"compound": "CCc1c(C)[nH]c(=O)c(N(C)CCCC#N)c1Cc1cccc(C)c1", "pIC50": 8.30}, {"compound": "CCNC(=S)Nc1c(Cc2cccc(C)c2)c(CC)c(C)[nH]c1=O", "pIC50": 4.60}, {"compound": "CCc1c(C)[nH]c(=O)c(N2CCOCC2)c1Cc1cc(C)cc(C)c1", "pIC50": 6.80}, {"compound": "CCc1c(C)[nH]c(=O)c(N(C)CCCSC)c1Cc1cc(C)cc(C)c1", "pIC50": 7.60}, {"compound": "CCCCN(CCCC)c1c(Cc2cc(C)cc(C)c2)c(CC)c(C)[nH]c1=O", "pIC50": 4.30}, {"compound": "CCc1c(C)[nH]c(=O)c(N(C)CC#N)c1Cc1cccc(C)c1", "pIC50": 8.40}, {"compound": "CCc1c(C)[nH]c(=O)c(NC=O)c1Cc1cc(C)cc(C)c1", "pIC50": 7.10}, {"compound": "CCc1c(C)[nH]c(=O)c(NC)c1Cc1cc(C)cc(C)c1", "pIC50": 8.00}, {"compound": "CCc1c(C)[nH]c(=O)c(-n2cccc2)c1Cc1cc(C)cc(C)c1", "pIC50": 7.90}, {"compound": "CCc1c(C)[nH]c(=O)c(N(Cc2ccccc2)Cc2ccccc2)c1Cc1cc(C)cc(C)c1", "pIC50": 4.00}, {"compound": "CCc1c(C)[nH]c(=O)c(N(C)CCCCCO)c1Cc1cccc(C)c1", "pIC50": 8.00}, {"compound": "CCc1c(C)[nH]c(=O)c(N(C)CCOC)c1Cc1cc(C)cc(C)c1", "pIC50": 8.70}, {"compound": "CCc1c(C)[nH]c(=O)c(NC(N)=S)c1Cc1cccc(C)c1", "pIC50": 6.50}, {"compound": "CCc1c(C)[nH]c(=O)c(N(C)CCC#N)c1Cc1cccc(C)c1", "pIC50": 7.80}, {"compound": "CCCNc1c(Cc2cc(C)cc(C)c2)c(CC)c(C)[nH]c1=O", "pIC50": 7.70}, {"compound": "CCc1c(C)[nH]c(=O)c(N(C)CCOC)c1Cc1cccc(/C=C/C#N)c1", "pIC50": 9.00}, {"compound": "CCCC(=O)Nc1c(Cc2cc(C)cc(C)c2)c(CC)c(C)[nH]c1=O", "pIC50": 4.00}]}]}
